Tested on: mice
Experiment: Acetic acid-induced writhing test
Format: in vivo
Conditions: 30 mg/kg i.p., vs control group
Procedure: Male Balb/c mice procured from the authorized animal supplier Biogen Laboratory Animal Facility, Bangalore, India were used for the animal experiments. The animals were housed in the animal facility of R&D Center, Vidya Herbs Pvt Ltd under controlled environmental conditions (temperature: 23±2° C., relative humidity: 35-50%, 12 h light/dark cycle). The animals were given commercial pellet diet and water ad libitum. All the animals were allowed to acclimatize to the environmental conditions before the start of experiments. The experimental protocols were approved by the Institutional Animal Ethics Committee (IAEC) of Vidya Herbs Pvt Ltd., Bangalore, India (VHPL/PCL/IAEC/01/2021).
Twenty-four male mice were randomized to four groups (n=6 in each group): Control group were given normal saline solution while positive control group received reference drug Diclofenac sodium (30 mg/kg). Two test doses of the inventive composition (25 and 50 mg/kg body weight) were used in the test. All the treatments were intraperitoneally injected. 30 min after the respective treatments, the animals were given 10 mL/kg body weight of 1% acetic acid intraperitoneally. The number of writhes were recorded after 10 min of acetic acid administration.
All the experimental data were analyzed by one way ANOVA followed by Tukey's multiple comparison test using GraphPad Prism 9.0 (GraphPad Software, Inc.). […]

Compound: O=C(O)Cc1ccccc1Nc1c(Cl)cccc1Cl [diclofenac sodium, Diclofenac sodium]
- writhing inhibition: 86.55%

From patent publication US20240091295A1, “PIPER NIGRUM COMPOSITION AND METHOD OF TREATING PAIN” (priority 2022, published 2024)
